From US20230167118A1, “DEGRADATION OF BRUTON'S TYROSINE KINASE (BTK) BY CONJUGATION OF BTK INIDBITORS WITH E3 LIGASE LIGAND AND METHODS OF USE” (BEIGENE, LTD., priority 2020, published 2023)

How the values were obtained:
HEK-293 cells = assay: HEK-293 Cytotoxicity Assay (CellTiter-Glo); format: cell-based; conditions: Homo sapiens, HEK293, 72 h incubation, CellTiter-Glo luminescence
How it was run: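 HEK-293 cells treated 72 h with 8 concentrations (4-fold dilutions, 0.2% DMSO final). Viability read by CellTiter-Glo luminescence; IC50 from four-parameter logistic fit of % inhibition.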

BTK = biological target: T1, BTK (Homo sapiens, UniProt Q06187); assay: Cell Degradation: BTK degradation in TMD-8 cells, HTRF assay; format: cell-based; conditions: 6 h treatment, IC50 (DC50) of BTK degradation
T1 construct: High control=Cell group with added DMSO and without compound, indicating microplate readings without BTK degradation; endogenous in cells; host or cells: TMD-8 cells
T1 sequence (Q06187 whole entry): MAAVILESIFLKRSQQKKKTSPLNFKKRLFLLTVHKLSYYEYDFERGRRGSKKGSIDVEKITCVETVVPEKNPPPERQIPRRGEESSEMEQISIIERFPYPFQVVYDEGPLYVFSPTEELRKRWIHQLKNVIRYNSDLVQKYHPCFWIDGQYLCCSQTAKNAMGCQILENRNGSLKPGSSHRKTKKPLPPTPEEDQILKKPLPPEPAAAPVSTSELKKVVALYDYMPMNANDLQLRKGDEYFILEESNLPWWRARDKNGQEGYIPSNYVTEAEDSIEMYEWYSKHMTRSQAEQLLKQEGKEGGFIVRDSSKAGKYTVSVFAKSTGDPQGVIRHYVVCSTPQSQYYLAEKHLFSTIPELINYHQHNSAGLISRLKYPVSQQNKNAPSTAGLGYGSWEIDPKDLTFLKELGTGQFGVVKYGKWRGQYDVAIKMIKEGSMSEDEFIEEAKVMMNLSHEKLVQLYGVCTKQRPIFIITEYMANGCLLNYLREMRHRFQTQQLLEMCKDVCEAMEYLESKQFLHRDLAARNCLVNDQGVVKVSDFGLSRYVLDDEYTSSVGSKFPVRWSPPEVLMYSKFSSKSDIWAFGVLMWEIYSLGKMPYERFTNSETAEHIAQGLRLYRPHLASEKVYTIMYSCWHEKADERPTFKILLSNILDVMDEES
How it was run: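 TMD-8 cells treated 6 h with 8-dose 6-fold dilutions in 0.2% DMSO, then lysed and BTK quantified by HTRF (665/620 nm). Degradation % normalised to high/low controls; DC50 from four-parameter fit, Dmax as maximal degradation.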

Compound	DC50 (BTK)	IC50 (HEK-293 cells)
Cc1cc(-c2ncnc3[nH]c(-c4ccc(N5CCN(CC6CCN(c7ccc(N8CCC(=O)NC8=O)cc7)CC6)CC5)nc4)cc23)c(F)cc1[C@@H](C)NC(=O)c1noc(C(C)(C)C)n1 [Example 131, (R)-5-(tert-butyl)-N-(1-(4-(6-(6-(4-((1-(4-(2,4-dioxotetrahydropyrimidin-1(2H)-yl)phenyl)piperidin-4-yl)methyl)piperazin-1-yl)pyridin-3-yl)-7H-pyrrolo[2,3-d]pyrimidin-4-yl)-5-fluoro-2-methylphenyl)ethyl)-1,2,4-oxadiazole-3-carboxamide]	0.59 nM	> 10000 nM
Cc1cc(-c2ncnc3[nH]c(-c4ccc(N5CCN(CC6CCN(c7ccc(N8CCC(=O)NC8=O)c(C)c7)CC6)CC5)nc4)cc23)c(F)cc1[C@@H](C)NC(=O)c1noc(C(C)(C)C)n1 [Example 132, (R)-5-(tert-butyl)-N-(1-(4-(6-(6-(4-((1-(4-(2,4-dioxotetrahydropyrimidin-1(2H)-yl)-3-methylphenyl)piperidin-4-yl)methyl)piperazin-1-yl)pyridin-3-yl)-7H-pyrrolo[2,3-d]pyrimidin-4-yl)-5-fluoro-2-methylphenyl)ethyl)-1,2,4-oxadiazole-3-carboxamide]	0.79 nM	> 10000 nM
Cc1nn(C2CCN(CC3CCN(c4ccc(N5CCC(=O)NC5=O)cc4)CC3)CC2)c(C)c1-c1cc2c(-c3ccc([C@@H](C)NC(=O)c4nc(C(C)(C)C)no4)c(CO)c3)ncnc2[nH]1 [Example 138, (R)-3-(tert-butyl)-N-(1-(4-(6-(1-(1-((1-(4-(2,4-dioxotetrahydropyrimidin-1(2H)-yl)phenyl)piperidin-4-yl)methyl)piperidin-4-yl)-3,5-dimethyl-1H-pyrazol-4-yl)-7H-pyrrolo[2,3-d]pyrimidin-4-yl)-2-(hydroxymethyl)phenyl)ethyl)-1,2,4-oxadiazole-5-carboxamide]	0.29 nM	1860 nM
Cc1nn(C2CCN(CC3CCN(c4ccc(N5CCC(=O)NC5=O)cc4)CC3)CC2)c(C)c1-c1cc2c(-c3cc(CO)c([C@@H](C)NC(=O)c4nc(C(C)(C)C)no4)cc3F)ncnc2[nH]1 [Example 139, (R)-3-(tert-butyl)-N-(1-(4-(6-(1-(1-((1-(4-(2,4-dioxotetrahydropyrimidin-1(2H)-yl)phenyl)piperidin-4-yl)methyl)piperidin-4-yl)-3,5-dimethyl-1H-pyrazol-4-yl)-7H-pyrrolo[2,3-d]pyrimidin-4-yl)-5-fluoro-2-(hydroxymethyl)phenyl)ethyl)-1,2,4-oxadiazole-5-carboxamide]	0.5 nM	> 10000 nM
Cc1cc(N2CCC(CN3CCN(c4ccc(-c5cc6c(-c7ccc([C@@H](C)NC(=O)c8noc(C(C)(C)C)n8)c(C)c7F)ncnc6[nH]5)cn4)CC3)CC2)ccc1N1CCC(=O)NC1=O [Example 141, (R)-5-(tert-butyl)-N-(1-(4-(6-(6-(4-((1-(4-(2,4-dioxotetrahydropyrimidin-1(2H)-yl)-3-methylphenyl)piperidin-4-yl)methyl)piperazin-1-yl)pyridin-3-yl)-7H-pyrrolo[2,3-d]pyrimidin-4-yl)-3-fluoro-2-methylphenyl)ethyl)-1,2,4-oxadiazole-3-carboxamide]	1.23 nM	> 10000 nM
Cc1cc(-c2ncnc3[nH]c(-c4ccc(N5CCN(CC6CCN(c7ccc(N8CCC(=O)NC8=O)cc7)CC6)CC5)nc4)c(F)c23)ccc1[C@@H](C)NC(=O)c1nc(C(C)(C)C)no1 [Example 142, (R)-3-(tert-butyl)-N-(1-(4-(6-(6-(4-((1-(4-(2,4-dioxotetrahydropyrimidin-1(2H)-yl)phenyl)piperidin-4-yl)methyl)piperazin-1-yl)pyridin-3-yl)-5-fluoro-7H-pyrrolo[2,3-d]pyrimidin-4-yl)-2-methylphenyl)ethyl)-1,2,4-oxadiazole-5-carboxamide]	2.99 nM	> 10000 nM
Cc1cc(-c2ncnc3[nH]c(-c4ccc(N5CCN(CC6CCN(c7ccc(C8CCC(=O)NC8=O)cc7)C6)CC5)cc4)cc23)ccc1[C@@H](C)NC(=O)c1nc(C(C)(C)C)no1 (stereo partly drawn) [Example 143, 3-(tert-butyl)-N-((1R)-1-(4-(6-(4-(4-((1-(4-(2,6-dioxopiperidin-3-yl)phenyl)pyrrolidin-3-yl)methyl)piperazin-1-yl)phenyl)-7H-pyrrolo[2,3-d]pyrimidin-4-yl)-2-methylphenyl)ethyl)-1,2,4-oxadiazole-5-carboxamide]	8.42 nM	> 10000 nM
C[C@@H](NC(=O)c1noc(C(C)(C)C)n1)c1ccc(-c2ncnc3[nH]c(-c4ccc(N5CCN(CC6CCN(c7ccc(N8CCC(=O)NC8=O)cc7)CC6)CC5)nc4)cc23)cc1CO [Example 144, (R)-5-(tert-butyl)-N-(1-(4-(6-(6-(4-((1-(4-(2,4-dioxotetrahydropyrimidin-1(2H)-yl)phenyl)piperidin-4-yl)methyl)piperazin-1-yl)pyridin-3-yl)-7H-pyrrolo[2,3-d]pyrimidin-4-yl)-2-(hydroxymethyl)phenyl)ethyl)-1,2,4-oxadiazole-3-carboxamide]	0.26 nM	> 10000 nM

More lines, main results first:

DC50 (BTK)	Compound	IC50 (HEK-293 cells)
0.33 nM	Cc1cc(-c2ncnc3[nH]c(-c4ccc(N5CCN(CC6CCN(c7ccc(N8CCC(=O)NC8=O)c(C)c7)CC6)CC5)cn4)cc23)ccc1[C@@H](C)NC(=O)c1noc(C(C)(C)C)n1 [Example 129, (R)-5-(tert-butyl)-N-(1-(4-(6-(5-(4-((1-(4-(2,4-dioxotetrahydropyrimidin-1(2H)-yl)-3-methylphenyl)piperidin-4-yl)methyl)piperazin-1-yl)pyridin-2-yl)-7H-pyrrolo[2,3-d]pyrimidin-4-yl)-2-methylphenyl)ethyl)-1,2,4-oxadiazole-3-carboxamide]	> 10000 nM
0.79 nM	Cc1cc(-c2ncnc3[nH]c(-c4ccc(N5CCN(CC6CCN(c7ccc(N8CCC(=O)NC8=O)c(C)c7)CC6)CC5)cn4)cc23)c(F)cc1[C@@H](C)NC(=O)c1noc(C(C)(C)C)n1 [Example 130, (R)-5-(tert-butyl)-N-(1-(4-(6-(5-(4-((1-(4-(2,4-dioxotetrahydropyrimidin-1(2H)-yl)-3-methylphenyl)piperidin-4-yl)methyl)piperazin-1-yl)pyridin-2-yl)-7H-pyrrolo[2,3-d]pyrimidin-4-yl)-5-fluoro-2-methylphenyl)ethyl)-1,2,4-oxadiazole-3-carboxamide]	> 10000 nM
0.8 nM	Cc1cc(-c2ncnc3[nH]c(-c4ccc(N5CCN(CC6CCN(c7ccc(N8CCC(=O)NC8=O)cc7)CC6)CC5)cn4)cc23)ccc1[C@@H](C)NC(=O)c1noc(C(C)(C)C)n1 [Example 133, (R)-5-(tert-butyl)-N-(1-(4-(6-(5-(4-((1-(4-(2,4-dioxotetrahydropyrimidin-1(2H)-yl)phenyl)piperidin-4-yl)methyl)piperazin-1-yl)pyridin-2-yl)-7H-pyrrolo[2,3-d]pyrimidin-4-yl)-2-methylphenyl)ethyl)-1,2,4-oxadiazole-3-carboxamide]	> 10000 nM
0.54 nM	Cc1cc(-c2ncnc3[nH]c(-c4ccc(N5CCN(CC6CCN(c7ccc(N8CCC(=O)NC8=O)cc7)CC6)CC5)cn4)cc23)c(F)cc1[C@@H](C)NC(=O)c1noc(C(C)(C)C)n1 [Example 134, (R)-5-(tert-butyl)-N-(1-(4-(6-(5-(4-((1-(4-(2,4-dioxotetrahydropyrimidin-1(2H)-yl)phenyl)piperidin-4-yl)methyl)piperazin-1-yl)pyridin-2-yl)-7H-pyrrolo[2,3-d]pyrimidin-4-yl)-5-fluoro-2-methylphenyl)ethyl)-1,2,4-oxadiazole-3-carboxamide]	> 10000 nM
0.17 nM	C[C@@H](NC(=O)c1noc(C(C)(C)C)n1)c1ccc(-c2ncnc3[nH]c(-c4ccc(N5CCN(CC6CCN(c7ccc(N8CCC(=O)NC8=O)cc7)CC6)CC5)cn4)cc23)cc1CO [Example 136, (R)-5-(tert-butyl)-N-(1-(4-(6-(5-(4-((1-(4-(2,4-dioxotetrahydropyrimidin-1(2H)-yl)phenyl)piperidin-4-yl)methyl)piperazin-1-yl)pyridin-2-yl)-7H-pyrrolo[2,3-d]pyrimidin-4-yl)-2-(hydroxymethyl)phenyl)ethyl)-1,2,4-oxadiazole-3-carboxamide]	> 10000 nM
0.23 nM	Cc1cc(N2CCC(CN3CCN(c4ccc(-c5cc6c(-c7ccc([C@@H](C)NC(=O)c8noc(C(C)(C)C)n8)c(CO)c7)ncnc6[nH]5)nc4)CC3)CC2)ccc1N1CCC(=O)NC1=O [Example 137, (R)-5-(tert-butyl)-N-(1-(4-(6-(5-(4-((1-(4-(2,4-dioxotetrahydropyrimidin-1(2H)-yl)-3-methylphenyl)piperidin-4-yl)methyl)piperazin-1-yl)pyridin-2-yl)-7H-pyrrolo[2,3-d]pyrimidin-4-yl)-2-(hydroxymethyl)phenyl)ethyl)-1,2,4-oxadiazole-3-carboxamide]	> 10000 nM
1.24 nM	Cc1c([C@@H](C)NC(=O)c2noc(C(C)(C)C)n2)ccc(-c2ncnc3[nH]c(-c4ccc(N5CCN(CC6CCN(c7ccc(N8CCC(=O)NC8=O)cc7)CC6)CC5)nc4)cc23)c1F [Example 140, (R)-5-(tert-butyl)-N-(1-(4-(6-(6-(4-((1-(4-(2,4-dioxotetrahydropyrimidin-1(2H)-yl)phenyl)piperidin-4-yl)methyl)piperazin-1-yl)pyridin-3-yl)-7H-pyrrolo[2,3-d]pyrimidin-4-yl)-3-fluoro-2-methylphenyl)ethyl)-1,2,4-oxadiazole-3-carboxamide]	> 10000 nM
